Test results: patent US12162879B2, “Pyridopyrimidine derivative, preparation method therefor and medical use thereof” (Jiangsu Hengrui Medicine Co., Ltd., priority 2018, dated 2024)
pEC50, pIC50: −log10 of the molar value.

Key:
Format in all cases: cell-based
hERG potassium channel = hERG potassium channel (Homo sapiens (Human), UniProt Q12809); test: Blocking effect on hERG potassium current, automatic patch clamp (Patchliner) on HEK293-hERG stable cell line
Description: The blocking effect of the compounds of the present application on hERG potassium current was determined using an automatic patch-clamp on a stable cell line transfected with hERG potassium channels.
The HEK293 cell line was transfected with pCDNA3.1(+) that had constructed the hERG gene. The monoclonal HEK293-hERG stable cell line was screened by adding G418. The HEK293-hERG stable cell line was subcultured at a density of 1:4 in MEM/EBSS medium (10% FBS, 400 μg/mL G418, 1% MEM non-essential amino acid solution (100×), 1% sodium pyruvate solution) and cultured within 48 to 72 hours for the automatic patch clamp experiment. On the day of the experiment, the cells were digested with 0.25% trypsin (life technologies, 12563-029), collected by centrifugation and resuspended with extracellular fluid (140 mM NaCl, 4 mM KCl, 1 mM MgCl2, 2 mM CaCl2, 5 mM MD glucose monohydrate, 10 mM HEPES, pH 7.4, 298 mOsmol) to obtain a cell suspension. The cell suspension was placed on the cell bank of the Patchliner instrument, the Patchliner instrument used a negative pressure controller to apply the cells to the chip (NPC-16), and the negative pressure attracted individual cells to the wells of the chip. When the whole cell mode was formed, the instrument got the hERG current according to the set hERG current-voltage program, and then the instrument automatically perfused the compound from low to high concentration. The currents at each concentration of the compound and the blank control current were analyzed by the HEAK EPC 10 patch clamp amplifier (Nanion), Pathlinersoftware and data analysis software provided by Pathcontrol HTsoftware.

[1] = test system: peripheral blood mononuclear cells (PBMC); test: Stimulation of IL12 secretion from PBMC (ELISA); details: minimum effective concentration, human PBMC, 24 hours
Description: The stimulating effect of the compounds of the present invention on the ability of secretion of IL12 and IFN γ from PBMC was determined by the following experimental method.
• 1. RMPI 1640 (Invitrogen, 11875); • 2. FBS (Gibco, 10099-141); • 3. Ficoll-Paque PREMIUM (GE, 17-5442-02); • 4. Trypan blue solution (Sigma, T8154-100 ML); • 5. SepMate™-50 (Stemcell, 15460); • 6. Bright-LineIM blood cell counter (Sigma, Z359629-1EA); • 7. 96-well cell culture plate (Corning, 3599); • 8. 96-well v-bottom plate (Corning, 3894); • 9. Human IL-12 ELISA kit (Neobioscience Technology Co., EHC152.96); • 10. Human IFN γ kit (cisbio, 62HIFNGPEG); and • 11. PHERAStar multi-function microplate reader (BMG, PHERAStar). II. Experimental Procedures
The compound was diluted with pure DMSO to a maximum concentration of 5 mM, and a total of 9 points were obtained by a 4-fold gradient dilution. 4 μl of the compound solution was then added to 196 μl of RMPI 1640 medium containing 10% FBS and mixed well. 50 μl of the mixture was taken and added to a 96-well cell culture plate.
All reagents were equilibrated to room temperature. 60 ml of blood from a healthy human and the same volume of PBS (containing 2% FBS) were added to a 250 ml culture flask, gently pipetted, mixed well and diluted. 15 ml of lymphocyte separation solution Ficoll-Paque PREMIUM was added to a 50 ml PBMC centrifuge tube SepMate™-50, followed by the addition of 30 ml of the above diluted blood. The mixture was centrifuged at 1200 g for 10 minutes at room temperature. The supernatant was taken and then centrifuged at 300 g for 8 minutes. The cells were re-suspended in the RMPI 1640 medium containing 10% FBS and counted, and the number of PBMCs was adjusted to 3.33×10^6 cells/ml. 150 μl of the cell solution was added to the plate containing the compounds, and incubated in an incubator at 37° C., 5.0% CO2 for 24 hours. The cell culture plate was placed in a centrifuge, and centrifuged at 1200 rpm for 10 minutes at room temperature. 150 μl of the supernatant was taken from each well.
The reagents in the Human IL-12 ELISA kit were equilibrated to room temperature. According to the kit's instruction, the highest concentration of the standard is 2000 pg/ml, and a total of 8 points were obtained by a 2-fold gradient dilution. The sample to be tested was diluted 20 folds. The solution was then added to a pre-coated plate at 100 μl/well. The plate was incubated at 37° C. for 90 minutes and rinsed. The […] was added at 100 μl/well, and the plate was incubated at 37° C. for 60 minutes and rinsed. HRP binding enzyme was added at 100 μl/well, and the plate was incubated at 37° C. for 30 minutes and rinsed. TMB was added, and the plate was incubated at room temperature for 5 minutes. Finally, the stop solution was added to stop the reaction, and the absorbance at 450 nm was read by the microplate reader.
The concentration of the compound that can stimulate PBMC to produce […] that is 3 times higher than the average value of the group without the compound (SD of the group without the compound) was defined as the minimum effective concentration (MEC) value of the compound.

human TLR7 = human TLR7 (Homo sapiens (Human), UniProt Q9NYK1); test: Agonist activity on human TLR7 in HEK-Blue hTLR7 cells; details: 16 hours, OD 620 nm
human TLR7, sequence (Q9NYK1 27-1049): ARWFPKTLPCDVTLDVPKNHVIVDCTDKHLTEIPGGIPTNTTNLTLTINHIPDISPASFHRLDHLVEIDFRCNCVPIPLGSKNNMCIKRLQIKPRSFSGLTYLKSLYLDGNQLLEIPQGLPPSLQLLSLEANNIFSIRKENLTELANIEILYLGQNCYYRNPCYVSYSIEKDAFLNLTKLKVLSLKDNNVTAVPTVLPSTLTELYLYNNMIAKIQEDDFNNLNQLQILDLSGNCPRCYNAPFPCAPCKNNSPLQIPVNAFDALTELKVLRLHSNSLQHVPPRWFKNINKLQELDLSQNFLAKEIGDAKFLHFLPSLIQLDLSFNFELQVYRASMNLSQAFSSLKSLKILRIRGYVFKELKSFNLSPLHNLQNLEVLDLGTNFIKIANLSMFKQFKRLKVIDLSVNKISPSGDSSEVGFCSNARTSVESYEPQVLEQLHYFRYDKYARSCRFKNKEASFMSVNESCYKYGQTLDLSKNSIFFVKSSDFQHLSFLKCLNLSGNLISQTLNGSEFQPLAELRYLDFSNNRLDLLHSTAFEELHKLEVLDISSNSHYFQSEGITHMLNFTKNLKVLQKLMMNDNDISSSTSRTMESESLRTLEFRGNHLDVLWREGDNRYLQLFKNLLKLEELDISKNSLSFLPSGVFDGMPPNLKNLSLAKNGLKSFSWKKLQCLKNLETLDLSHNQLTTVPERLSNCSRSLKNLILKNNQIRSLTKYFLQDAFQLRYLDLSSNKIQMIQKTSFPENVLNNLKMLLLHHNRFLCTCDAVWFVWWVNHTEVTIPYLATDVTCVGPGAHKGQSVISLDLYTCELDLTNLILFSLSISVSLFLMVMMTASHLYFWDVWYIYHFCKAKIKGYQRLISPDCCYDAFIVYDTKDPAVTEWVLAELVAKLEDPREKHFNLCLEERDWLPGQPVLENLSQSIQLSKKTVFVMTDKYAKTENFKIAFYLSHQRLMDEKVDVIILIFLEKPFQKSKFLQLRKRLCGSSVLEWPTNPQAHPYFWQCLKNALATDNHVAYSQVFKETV
Description: • 1. DMEM(Gibco, 10564-029); • 2. Fetal bovine serum (GIBCO, 10099); • 3. Trypan blue solution (Sigma, T8154-100 ML); • 4. Flexstation 3 multi-function microplate reader (Molecular Devices); • 5. HEK-Blue™ hTLR8 cell line (InvivoGen, hkb-hTLR8), or HEK-Blue™ hTLR7 cell line (InvivoGen, hkb-hTLR7); • 6. HEK-Blue detection reagent (InvivoGen, hb-det3); and • 7. Phosphate buffer solution (PBS) pH 7.4 (Shanghai Basalmedia Technologies Co., Ltd., B320). II. Experimental Procedures a. Determination of Agonist Activity on Human TLR8
A bag of HEK-Blue detection dry powder was dissolved in 50 ml of water free of endotoxin, and the solution was then placed in an incubator at 37° C. for 10 minutes followed by sterile filtration to prepare a HEK-Blue detection medium. The compound was firstly formulated into a 20 mM stock solution, then diluted with pure DMSO to a maximum concentration of 6×10^6 nM, and a total of 10 points were obtained by a 3-fold gradient dilution. The above formulated compound was firstly diluted 20-fold with the medium, then 20 μl of the diluted compound was added to each well.
The supernate was removed from the HEK-Blue™ hTLR7 cells, to which 2-5 ml of pre-warmed PBS was then added. The cells were placed in an incubator for 1-2 minutes, gently pipetted, and counted by trypan blue staining. The cells were re-suspended in the HEK-Blue detection medium to adjust the concentration to 2.2×10^5 cells/ml. 180 μl of cells was added to the above 96-well plate comprising 20 μl of the compound, and incubated at 37° C. for 16 hours.
The corresponding OD values were obtained by a microplate reader at a wavelength of 620 nm, and the EC50 values of the compounds were calculated by Graphpad Prism.

hERG potassium channel, sequence (Q12809 whole entry): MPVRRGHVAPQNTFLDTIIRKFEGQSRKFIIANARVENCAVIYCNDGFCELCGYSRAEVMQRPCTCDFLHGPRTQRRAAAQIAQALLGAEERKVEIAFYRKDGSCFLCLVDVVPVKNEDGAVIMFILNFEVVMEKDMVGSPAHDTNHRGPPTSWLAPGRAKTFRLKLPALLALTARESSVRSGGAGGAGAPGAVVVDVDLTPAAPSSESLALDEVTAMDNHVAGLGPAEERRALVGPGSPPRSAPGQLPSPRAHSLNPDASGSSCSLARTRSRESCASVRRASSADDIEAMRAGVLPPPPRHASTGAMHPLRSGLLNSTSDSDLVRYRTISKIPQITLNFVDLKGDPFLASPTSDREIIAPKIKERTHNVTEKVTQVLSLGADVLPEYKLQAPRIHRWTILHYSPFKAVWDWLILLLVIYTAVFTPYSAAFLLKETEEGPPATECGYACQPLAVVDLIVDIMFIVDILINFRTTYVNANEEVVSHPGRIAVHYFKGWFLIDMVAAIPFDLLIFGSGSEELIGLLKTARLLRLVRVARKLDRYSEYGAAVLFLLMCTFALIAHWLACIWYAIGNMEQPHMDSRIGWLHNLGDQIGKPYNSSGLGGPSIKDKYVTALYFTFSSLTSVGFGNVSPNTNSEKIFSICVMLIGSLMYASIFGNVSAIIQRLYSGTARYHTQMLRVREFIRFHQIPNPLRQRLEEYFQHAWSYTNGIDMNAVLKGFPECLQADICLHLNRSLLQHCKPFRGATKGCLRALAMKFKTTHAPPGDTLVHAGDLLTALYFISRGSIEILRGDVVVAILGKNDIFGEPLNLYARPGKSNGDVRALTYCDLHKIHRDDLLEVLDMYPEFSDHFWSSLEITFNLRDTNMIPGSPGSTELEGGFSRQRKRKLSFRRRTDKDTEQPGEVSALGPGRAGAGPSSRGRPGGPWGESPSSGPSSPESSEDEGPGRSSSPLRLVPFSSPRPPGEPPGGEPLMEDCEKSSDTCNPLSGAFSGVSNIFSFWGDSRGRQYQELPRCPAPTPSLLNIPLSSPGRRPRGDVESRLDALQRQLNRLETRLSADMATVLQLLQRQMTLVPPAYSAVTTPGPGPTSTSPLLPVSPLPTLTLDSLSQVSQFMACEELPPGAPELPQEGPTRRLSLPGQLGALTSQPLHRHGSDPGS

| SMILES | pIC50 (hERG potassium channel) | IL12 MEC [1] [nM] | pEC50 (human TLR7) | Emax (human TLR7) [%] |
| --- | --- | --- | --- | --- |
| CCCC[C@](C)(CO)Nc1nc(N)nc2cc(-c3ccc(CN4CCCC4)nc3)cnc12 [Example 2, (R)-2-((2-Amino-7-(6-(pyrrolidin-1-ylmethyl)pyridin-3-yl)pyrido[3,2-d]pyrimidin-4-yl)amino)-2-methylhexan-1-ol] | 5.15 | 23 | – | – |
| CCCC[C@](C)(CO)Nc1nc(N)nc2cc(-c3ccc(C4CCN(C)CC4)nc3)cnc12 [Example 4, (R)-2-((2-Amino-7-(6-(1-methylpiperidin-4-yl)pyridin-3-yl)pyrido[3,2-d]pyrimidin-4-yl)amino)-2-methylhexan-1-ol] | 4.85 | 31 | < 4.52 | 12 |
| CCCCC(C)(CO)Nc1nc(N)nc2cc(-c3ccc(CN4CCN(C)CC4)nc3)cnc12 (centres unmarked) [Example 5, 2-((2-Amino-7-(6-((4-methylpiperazin-1-yl)methyl)pyridin-3-yl)pyrido[3,2-d]pyrimidin-4-yl)amino)-2-methylhexan-1-ol] | 4.77 | – | < 4.52 | 14 |
| CCCC[C@](C)(CO)Nc1nc(N)nc2cc(-c3ccc(CN4CCN(C)CC4)nc3)cnc12 [Example 6, (R)-2-((2-Amino-7-(6-((4-methylpiperazin-1-yl)methyl)pyridin-3-yl)pyrido[3,2-d]pyrimidin-4-yl)amino)-2-methylhexan-1-ol] | 4.59 | 41 | < 4.52 | 14 |
| CCCC[C@](C)(CO)Nc1nc(N)nc2cc(-c3cnc(C4CCN(C)CC4)nc3)cnc12 [Example 8, (R)-2-((2-Amino-7-(2-(1-methylpiperidin-4-yl)pyrimidin-5-yl)pyrido[3,2-d]pyrimidin-4-yl)amino)-2-methylhexan-1-ol] | < 4.52 | 5 | < 4.72 | 73 |
